Assay results published in patent US12030879B2, “Sulfonyl acetamides as NLRP3 inhibitors” (Inflazome Limited, priority 2018, dated 2024).

Target: T1, NLRP3 (Homo sapiens, UniProt Q96P20)
T1 construct: Seed THP-1 cells (25,000 cells/well) containing 1.0 μg/ml LPS in 40 μl of RPMI medium; host or cells: THP-1 cells
Experiment: THP-1 cells pyroptosis assay
Format: cell-based
Conditions: LPS 1 μg/ml, compound 3 hrs, nigericin 5 μM 1 hr, resazurin readout
Outline: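 LPS-primed (1 μg/ml) THP-1 cells in serum-free RPMI were treated 3 h with compound (8-point half-log, top 10 μM; 0.1% DMSO), then with 5 μM nigericin for 1 h at 37°C. Viability was read by 100 μM resazurin (ex 560/em 590 nm) after 1–2 h. IC50 came from 4-parameter nonlinear regression.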

T1 sequence (Q96P20 whole entry): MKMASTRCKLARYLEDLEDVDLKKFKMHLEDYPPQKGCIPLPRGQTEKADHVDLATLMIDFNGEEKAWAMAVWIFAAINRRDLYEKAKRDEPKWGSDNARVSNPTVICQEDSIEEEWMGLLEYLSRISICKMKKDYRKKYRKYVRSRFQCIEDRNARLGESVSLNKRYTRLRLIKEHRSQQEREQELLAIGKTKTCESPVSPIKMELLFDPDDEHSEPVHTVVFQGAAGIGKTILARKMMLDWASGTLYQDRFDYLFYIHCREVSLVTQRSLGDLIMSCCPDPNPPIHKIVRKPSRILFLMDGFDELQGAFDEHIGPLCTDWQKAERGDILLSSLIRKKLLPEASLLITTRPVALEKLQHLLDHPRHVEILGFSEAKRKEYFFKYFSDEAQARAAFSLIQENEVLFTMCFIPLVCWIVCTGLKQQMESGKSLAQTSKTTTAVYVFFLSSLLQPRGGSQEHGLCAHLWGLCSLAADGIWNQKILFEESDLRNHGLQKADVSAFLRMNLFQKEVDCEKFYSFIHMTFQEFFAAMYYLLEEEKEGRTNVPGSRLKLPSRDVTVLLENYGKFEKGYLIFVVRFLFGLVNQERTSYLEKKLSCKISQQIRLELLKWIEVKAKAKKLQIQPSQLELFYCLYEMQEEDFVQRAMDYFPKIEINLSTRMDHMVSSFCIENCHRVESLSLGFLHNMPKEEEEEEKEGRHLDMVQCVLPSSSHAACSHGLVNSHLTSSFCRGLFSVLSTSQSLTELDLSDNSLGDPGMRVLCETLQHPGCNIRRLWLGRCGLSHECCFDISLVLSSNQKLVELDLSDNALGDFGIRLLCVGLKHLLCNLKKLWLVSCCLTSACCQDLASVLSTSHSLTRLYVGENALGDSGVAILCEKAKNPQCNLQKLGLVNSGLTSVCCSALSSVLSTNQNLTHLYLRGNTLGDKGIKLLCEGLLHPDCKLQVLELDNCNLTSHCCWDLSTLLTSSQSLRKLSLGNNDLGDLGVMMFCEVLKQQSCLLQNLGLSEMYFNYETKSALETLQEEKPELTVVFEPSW

Row | Compound | IC50
1 | COc1cc(-c2ccc3c(c2CC(=O)NS(=O)(=O)c2ccc(C(C)(C)O)cc2C)CCC3)ccn1 [Example 85, N-((4-(2-Hydroxypropan-2-yl)-2-methylphenyl)sulfonyl)-2-(5-(2-methoxypyridin-4-yl)-2,3-dihydro-1H-inden-4-yl)acetamide] | ≤ 0.5 µM
2 | COc1cc(-c2cc(F)cc(C(C)C)c2CC(=O)NS(=O)(=O)c2ccc(CC#N)cc2)ccn1 [Example 187] | ≤ 5 µM
3 | Cc1cc(C(C)(C)O)ccc1S(=O)(=O)NC(=O)Cc1c(-c2ccnc(C#N)c2)ccc2c1CCC2 [Example 189] | ≤ 0.5 µM
4 | COc1cc(-c2cc(F)cc(C(C)C)c2CC(=O)NS(=O)(=O)c2ccc(C(C)(C)C#N)cc2)ccn1 [Example 190] | ≤ 5 µM
5 | COc1cc(-c2cc(F)cc(C(C)C)c2CC(=O)NS(=O)(=O)c2cncc(N(C)C)n2)ccn1 [Example 191] | ≤ 1 µM
6 | COc1cc(-c2cc(F)cc(C(C)C)c2CC(=O)NS(=O)(=O)c2cnn(CC(C)(C)O)c2)ccn1 [Example 193] | ≤ 5 µM
7 | COc1cc(-c2cc(F)cc(C(C)C)c2CC(=O)NS(=O)(=O)c2ccn(C(C)(C)CO)n2)ccn1 [Example 195] | ≤ 5 µM
8 | COc1cc(-c2cc(F)cc(C(C)C)c2CC(=O)NS(=O)(=O)c2cc(C(C)(C)O)n(C(C)C)n2)ccn1 [Example 196] | ≤ 10 µM
9 | COc1cc(-c2cc(F)cc(C(C)C)c2CC(=O)NS(=O)(=O)c2cncc(C(C)(C)O)c2)ccn1 [Example 198] | ≤ 0.5 µM
10 | CCC(O)(CC)c1cc(S(=O)(=O)NC(=O)Cc2c(-c3ccnc(OC)c3)cc(F)cc2C(C)C)sc1C [Example 199] | ≤ 0.5 µM
11 | CC(C)c1cc(S(=O)(=O)NC(=O)Cc2c(-c3cccnc3)cc(F)cc2C(C)C)c(F)cc1F [Example 200] | ≤ 0.5 µM
12 | CC(C)c1cc(S(=O)(=O)NC(=O)Cc2c(-c3ccncc3)cc(F)cc2C(C)C)c(F)cc1F [Example 201] | ≤ 0.5 µM
13 | Cc1nc(C(C)C)c(CC(=O)NS(=O)(=O)c2cc(C(C)C)c(F)cc2F)n1-c1ccncc1 [Example 202] | ≤ 5 µM
14 | COc1ccncc1-c1cc(F)cc(C(C)C)c1CC(=O)NS(=O)(=O)c1cc(C(C)C)c(F)cc1F [Example 203] | ≤ 0.5 µM
15 | COc1cc(-c2ccc3c(c2CC(=O)NS(=O)(=O)c2cc(C(C)C)c(F)cc2F)CCC3)ccn1 [Example 204] | ≤ 5 µM
16 | COc1cc(-c2cc(F)cc(C(C)C)c2CC(=O)NS(=O)(=O)c2cc(C(C)C)ccc2C)ccn1 [Example 206] | ≤ 0.5 µM
17 | C=C(C)c1ccc(C)c(S(=O)(=O)NC(=O)Cc2c(-c3ccnc(OC)c3)cc(F)cc2C(C)C)c1 [Example 209] | ≤ 0.5 µM

The remaining lines, values ahead:

Row | IC50 | Compound
18 | ≤ 1 µM | COc1cc(-c2cc(F)cc(C(C)C)c2CC(=O)NS(=O)(=O)c2ccc(C(C)C)cc2)ccn1 [Example 110, 2-(4-Fluoro-2-isopropyl-6-(2-methoxypyridin-4-yl)phenyl)-N-((4-isopropylphenyl)sulfonyl)acetamide]
19 | ≤ 10 µM | COc1cc(-c2cc(F)cc(C(C)C)c2CC(=O)NS(=O)(=O)c2nc(C)cc(C)n2)ccn1 [Example 188]
20 | ≤ 5 µM | COc1cc(-c2cc(F)cc(C(C)C)c2CC(=O)NS(=O)(=O)c2ccn(C(C)(C)CN(C)C)n2)ccn1 [Example 192]
21 | ≤ 5 µM | COCC(C)(C)n1ccc(S(=O)(=O)NC(=O)Cc2c(-c3ccnc(OC)c3)cc(F)cc2C(C)C)n1 [Example 194]
22 | ≤ 5 µM | COc1cc(-c2cc(F)cc(C(C)C)c2CC(=O)NS(=O)(=O)c2cc(C(C)(C)O)n(C)n2)ccn1 [Example 197]
23 | ≤ 0.5 µM | COc1cc(-c2cc(F)cc(C(C)C)c2CC(=O)NS(=O)(=O)c2cc(C(C)C)cs2)ccn1 [Example 205]
24 | ≤ 1 µM | CCCn1cc(S(=O)(=O)NC(=O)Cc2c(-c3ccnc(OC)c3)cc(F)cc2C(C)C)c(C)n1 [Example 207]
25 | ≤ 5 µM | COc1cc(-c2cc(F)cc(C(C)C)c2CC(=O)NS(=O)(=O)c2cn(CC(C)C)nc2C)ccn1 [Example 208]

System: not listed separately
Experiment: PK protocol, intravenous administration in rats
Format: in vivo
Conditions: rat, plasma, male Sprague Dawley rats, 1 mg/kg
Method: Pharmacokinetic parameters were determined in male Sprague Dawley rats (Vital River Laboratory Animal Technology Co Ltd, Beijing, China, 7-9 weeks old). Animals were group housed during the study and maintained under a 12 h light/dark cycle.
For intravenous administration, compounds were formulated as a solution in DMSO:PBS [10:90] in 2 mL/kg dosing volume and administered via tail vein.
Serial blood samples (about 200 μL) were taken from each animal at each of 8 time-points post dose (0.083, 0.25, 0.5, 1, 2, 4, 8 and 24 h). Samples were held on ice for no longer than 30 minutes before centrifugation (5,696 rpm (3,000 g) for 15 minutes) for plasma generation. Plasma was frozen on dry ice prior to bioanalysis. PK parameters were generated from LC-MS/MS data using Phoenix WinNonlin 6.3 software.

Row | AUC | clearance | half-life | Compound
26 | 926 ng·h/mL | 29.1 mL/min/kg | 19.8 h | COc1cc(-c2ccc3c(c2CC(=O)NS(=O)(=O)c2ccc(C(C)(C)O)cc2C)CCC3)ccn1 [Example 85, N-((4-(2-Hydroxypropan-2-yl)-2-methylphenyl)sulfonyl)-2-(5-(2-methoxypyridin-4-yl)-2,3-dihydro-1H-inden-4-yl)acetamide]
27 | 1260 ng·h/mL | 13.3 mL/min/kg | 7.2 h | COc1cc(-c2cc(F)cc(C(C)C)c2CC(=O)NS(=O)(=O)c2ccc(C(C)C)cc2)ccn1 [Example 110, 2-(4-Fluoro-2-isopropyl-6-(2-methoxypyridin-4-yl)phenyl)-N-((4-isopropylphenyl)sulfonyl)acetamide]

Same assay, conditions: rat, plasma, male Sprague Dawley rats, 1 mg/kg, read-out: Vdss

Row | Vd | Compound
28 | 12.2 L/kg | COc1cc(-c2ccc3c(c2CC(=O)NS(=O)(=O)c2ccc(C(C)(C)O)cc2C)CCC3)ccn1 [Example 85, N-((4-(2-Hydroxypropan-2-yl)-2-methylphenyl)sulfonyl)-2-(5-(2-methoxypyridin-4-yl)-2,3-dihydro-1H-inden-4-yl)acetamide]
29 | 6.72 L/kg | COc1cc(-c2cc(F)cc(C(C)C)c2CC(=O)NS(=O)(=O)c2ccc(C(C)C)cc2)ccn1 [Example 110, 2-(4-Fluoro-2-isopropyl-6-(2-methoxypyridin-4-yl)phenyl)-N-((4-isopropylphenyl)sulfonyl)acetamide]
